# pIC50: −log10 of the molar value. Structures can show the parent of a compound that is named as a salt.
# Biological target: T1, human recombinant HPK1 (Homo sapiens, UniProt Q92918)
# T1 construct: purchased BPS Bioscience
# Test: Inhibitory activity against human recombinant HPK1 (TR-FRET)
# Type: biochemical
# Settings: ULight-p70S6K peptide, ATP at Km, room temperature, 1 hour, 0.32 to 1000 nM compound
# Method in brief: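 IC50 classes A–D use 10, 50 and 100 nM cut-offs, derived from TR-FRET signal inhibition relative to DMSO controls. Human recombinant HPK1 phosphorylated ULight-p70S6K peptide at Km ATP for 1 h, room temperature, pH 7.4; test range 0.32–1000 nM final, detection with Eu-labelled antibody after EDTA quench.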
# T1 sequence (Q92918 whole entry): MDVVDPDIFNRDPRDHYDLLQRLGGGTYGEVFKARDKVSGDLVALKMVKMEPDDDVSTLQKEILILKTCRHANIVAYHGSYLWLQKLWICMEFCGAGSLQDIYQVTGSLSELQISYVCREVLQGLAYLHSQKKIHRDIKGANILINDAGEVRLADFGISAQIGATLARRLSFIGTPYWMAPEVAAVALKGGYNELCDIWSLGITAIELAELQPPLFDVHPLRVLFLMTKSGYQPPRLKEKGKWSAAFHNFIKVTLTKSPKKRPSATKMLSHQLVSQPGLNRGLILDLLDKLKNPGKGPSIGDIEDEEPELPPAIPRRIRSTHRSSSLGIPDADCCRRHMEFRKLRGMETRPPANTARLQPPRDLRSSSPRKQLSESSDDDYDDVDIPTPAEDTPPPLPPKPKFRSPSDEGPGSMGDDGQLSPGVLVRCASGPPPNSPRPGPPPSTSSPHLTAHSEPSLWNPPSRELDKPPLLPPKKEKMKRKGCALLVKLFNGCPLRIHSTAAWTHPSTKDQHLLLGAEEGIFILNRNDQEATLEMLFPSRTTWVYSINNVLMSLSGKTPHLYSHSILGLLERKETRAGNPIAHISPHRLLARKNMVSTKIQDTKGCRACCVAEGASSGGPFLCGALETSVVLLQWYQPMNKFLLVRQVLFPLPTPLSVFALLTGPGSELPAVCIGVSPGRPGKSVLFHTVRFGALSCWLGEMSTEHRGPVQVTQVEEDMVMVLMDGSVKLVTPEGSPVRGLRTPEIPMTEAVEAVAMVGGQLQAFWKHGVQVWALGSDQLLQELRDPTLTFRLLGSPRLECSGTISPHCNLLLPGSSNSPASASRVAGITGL
row,SMILES,pIC50
1,"N[C@H]1CCCN(c2cc(Nc3ccnc(-c4c(F)cccc4CO)n3)ncc2C#Cc2cnn(C(F)F)c2)C1 [Example 243, (S)-(2-(4-((4-(3-aminopiperidin-1-yl)-5-((1-(difluoromethyl)-1H-pyrazol-4-yl)ethynyl)pyridin-2-yl)amino)pyrimidin-2-yl)-3-fluorophenyl)methanol hydrochloride]",≥ 8.00
2,"COCC(C)(C)n1cc(-c2cnc(Nc3ccnc(-c4c(F)cccc4OC)n3)cc2N2CCC[C@H](N)C2)cn1 [Example 244, (S)-N-(4-(3-aminopiperidin-1-yl)-5-(1-(1-methoxy-2-methylpropan-2-yl)-1H-pyrazol-4-yl)pyridin-2-yl)-2-(2-fluoro-6-methoxyphenyl)pyrimidin-4-amine hydrochloride]",≥ 8.00
3,"COc1cccc(F)c1-c1nccc(Nc2cc(N3CCC[C@H](N)C3)c(-c3cnn(CC4CC(F)(F)C4)c3)cn2)n1 [Example 245, (S)-N-(4-(3-aminopiperidin-1-yl)-5-(1-((3,3-difluorocyclobutyl)methyl)-1H-pyrazol-4-yl)pyridin-2-yl)-2-(2-fluoro-6-methoxyphenyl)pyrimidin-4-amine hydrochloride]",≥ 8.00
4,"COc1cccc(F)c1-c1nccc(Nc2cc(N3CCC[C@H](N)C3)c(-c3cnn(CCN(C)C)c3)cn2)n1 [Example 246, (S)-N-(4-(3-aminopiperidin-1-yl)-5-(1-(2-(dimethylamino)ethyl)-1H-pyrazol-4-yl)pyridin-2-yl)-2-(2-fluoro-6-methoxyphenyl)pyrimidin-4-amine hydrochloride]",≥ 8.00
5,"COc1cccc(F)c1-c1nccc(Nc2cc(N3CCC[C@H](N)C3)c(-c3ccc(OCCN(C)C)nc3)cn2)n1 [Example 249, (S)-4-(3-aminopiperidin-1-yl)-6′-(2-(dimethylamino)ethoxy)-N-(2-(2-fluoro-6-methoxyphenyl)pyrimidin-4-yl)-[3,3′-bipyridin]-6-amine hydrochloride]",≥ 8.00
6,"COc1cc(C(=O)N2CC[C@@H](F)C2)cc(F)c1-c1nccc(Nc2cc(N3CCC[C@H](N)C3)c(-c3cnn(C(F)F)c3)cn2)n1 [Example 251, (4-(4-((4-((S)-3-aminopiperidin-1-yl)-5-(1-(difluoromethyl)-1H-pyrazol-4-yl)pyridin-2-yl)amino)pyrimidin-2-yl)-3-fluoro-5-methoxyphenyl)((R)-3-fluoropyrrolidin-1-yl)methanone]",≥ 8.00
7,"COc1cccc(F)c1-c1nccc(Nc2cc(N3C[C@@H](N)CC[C@H]3C)c(-c3cnn(C(F)F)c3)cn2)n1 [Example 252, N-(4-((2R,5S)-5-amino-2-methylpiperidin-1-yl)-5-(1-(difluoromethyl)-1H-pyrazol-4-yl)pyridin-2-yl)-2-(2-fluoro-6-methoxyphenyl)pyrimidin-4-amine]",≥ 8.00
8,"COc1cccc(F)c1-c1nccc(Nc2cc(N3CC[C@H](OC)[C@H](N)C3)c(-c3cnn(C(F)F)c3)cn2)n1 [Example 253, N-(4-((3R,4S)-3-amino-4-methoxypiperidin-1-yl)-5-(1-(difluoromethyl)-1H-pyrazol-4-yl)pyridin-2-yl)-2-(2-fluoro-6-methoxyphenyl)pyrimidin-4-amine]",≥ 8.00
9,"COc1cccc(F)c1-c1nccc(Nc2cc(N3CC[C@@H](OC)[C@H](N)C3)c(-c3cnn(C(F)F)c3)cn2)n1 [Example 254, N-(4-((3R,4R)-3-amino-4-methoxypiperidin-1-yl)-5-(1-(difluoromethyl)-1H-pyrazol-4-yl)pyridin-2-yl)-2-(2-fluoro-6-methoxyphenyl)pyrimidin-4-amine]",≥ 8.00
10,"COc1cccc(F)c1-c1nccc(Nc2cc(N3CCC[C@H](N)C3)c(-c3ccc(C(=O)N4CCOCC4)cc3)cn2)n1 [Example 255, (S)-(4-(4-(3-aminopiperidin-1-yl)-6-((2-(2-fluoro-6-methoxyphenyl)pyrimidin-4-yl)amino)pyridin-3-yl)phenyl)(morpholino)methanone hydrochloride]",≥ 8.00
11,"COc1cccc(F)c1-c1nccc(Nc2cc(N3CCC[C@H](O)C3)c(-c3cnn(C4CC(C)(C)OC(C)(C)C4)c3)cn2)n1 [Example 264, (S)-1-(2-((2-(2-fluoro-6-methoxyphenyl)pyrimidin-4-yl)amino)-5-(1-(2,2,6,6-tetramethyltetrahydro-2H-pyran-4-yl)-1H-pyrazol-4-yl)pyridin-4-yl)piperidin-3-ol]",≥ 8.00
12,"CNC[C@@H]1CCCN(c2cc(Nc3ccnc(-c4c(F)cccc4OC)n3)ncc2-c2cnn(C(F)F)c2)C1 [Example 266, (S)-N-(5-(1-(difluoromethyl)-1H-pyrazol-4-yl)-4-(3-((methylamino)methyl)piperidin-1-yl)pyridin-2-yl)-2-(2-fluoro-6-methoxyphenyl)pyrimidin-4-amine hydrochloride]",≥ 8.00
13,"CNC[C@H]1CCCN(c2cc(Nc3ccnc(-c4c(F)cccc4OC)n3)ncc2-c2cnn(C(F)F)c2)C1 [Example 267, (R)-N-(5-(1-(difluoromethyl)-1H-pyrazol-4-yl)-4-(3-((methylamino)methyl)piperidin-1-yl)pyridin-2-yl)-2-(2-fluoro-6-methoxyphenyl)pyrimidin-4-amine hydrochloride]",≥ 8.00

# Further lines, results first:
row,pIC50,SMILES
1,≥ 8.00,"COc1cccc(F)c1-c1nccc(Nc2cc(N3CCC[C@H](N)C3)c(-c3cnn(CF)c3)cn2)n1 [Example 247, (S)-N-(4-(3-aminopiperidin-1-yl)-5-(1-(fluoromethyl)-1H-pyrazol-4-yl)pyridin-2-yl)-2-(2-fluoro-6-methoxyphenyl)pyrimidin-4-amine hydrochloride]"
2,≥ 8.00,"COc1cccc(F)c1-c1nccc(Nc2cc(N3CCC[C@H](N)C3)c(-c3ccc(C4CCNCC4)nc3)cn2)n1 [Example 248, (S)-4-(3-aminopiperidin-1-yl)-N-(2-(2-fluoro-6-methoxyphenyl)pyrimidin-4-yl)-6′-(piperidin-4-yl)-[3,3′-bipyridin]-6-amine hydrochloride]"
3,≥ 8.00,"CCNC(=O)Nc1ccc(-c2cnc(Nc3ccnc(-c4c(F)cccc4OC)n3)cc2N2CCC[C@H](N)C2)cn1 [Example 250, (S)-1-(4′-(3-aminopiperidin-1-yl)-6′-((2-(2-fluoro-6-methoxyphenyl)pyrimidin-4-yl)amino)-[3,3′-bipyridin]-6-yl)-3-ethylurea hydrochloride]"
4,≥ 8.00,"COc1cccc(F)c1-c1nccc(Nc2cc(N3CCC[C@H](N)C3)c(-c3cnc4c(c3)OCCN4C)cn2)n1 [Example 256, (S)-N-(4-(3-aminopiperidin-1-yl)-5-(4-methyl-3,4-dihydro-2H-pyrido[3,2-b][1,4]oxazin-7-yl)pyridin-2-yl)-2-(2-fluoro-6-methoxyphenyl)pyrimidin-4-amine hydrochloride]"
5,≥ 8.00,"COc1cccc(F)c1-c1nccc(Nc2cc(N3CCC[C@H](N)C3)c(-c3ccc4c(c3)OCCN4C)cn2)n1 [Example 257, (S)-N-(4-(3-aminopiperidin-1-yl)-5-(4-methyl-3,4-dihydro-2H-benzo[b][1,4]oxazin-7-yl)pyridin-2-yl)-2-(2-fluoro-6-methoxyphenyl)pyrimidin-4-amine hydrochloride]"
6,≥ 8.00,"COc1cccc(F)c1-c1nccc(Nc2cc(N3CCC[C@H](N)C3)c(-c3ccc4c(c3)COC(=O)N4)cn2)n1 [Example 258, (S)-6-(4-(3-aminopiperidin-1-yl)-6-((2-(2-fluoro-6-methoxyphenyl)pyrimidin-4-yl)amino)pyridin-3-yl)-1,4-dihydro-2H-benzo[d][1,3]oxazin-2-one hydrochloride]"
7,≥ 8.00,"COc1cccc(F)c1-c1nccc(Nc2cc(N3CCC[C@H](N)C3)c(-c3ccc(N4CCCC4=O)cc3)cn2)n1 [Example 259, (S)-1-(4-(4-(3-aminopiperidin-1-yl)-6-((2-(2-fluoro-6-methoxyphenyl)pyrimidin-4-yl)amino)pyridin-3-yl)phenyl)pyrrolidin-2-one hydrochloride]"
8,≥ 8.00,"COc1cccc(F)c1-c1nccc(Nc2cc(N3CCC[C@H](N)C3)c(-c3ccc4c(c3)OCC(=O)N4)cn2)n1 [Example 260, (S)-7-(4-(3-aminopiperidin-1-yl)-6-((2-(2-fluoro-6-methoxyphenyl)pyrimidin-4-yl)amino)pyridin-3-yl)-2H-benzo[b][1,4]oxazin-3(4H)-one hydrochloride]"
9,≥ 8.00,"COc1cccc(F)c1-c1nccc(Nc2cc(N3CCC[C@H](N)C3)c(-c3ccc4c(c3)OCC(=O)N4C)cn2)n1 [Example 261, (S)-7-(4-(3-aminopiperidin-1-yl)-6-((2-(2-fluoro-6-methoxyphenyl)pyrimidin-4-yl)amino)pyridin-3-yl)-4-methyl-2H-benzo[b][1,4]oxazin-3(4H)-one hydrochloride]"
10,≥ 8.00,"COc1cccc(F)c1-c1nccc(Nc2cc(N3CCC[C@H](N)C3)c(-c3cc(C)c4c(c3)CCC(=O)N4)cn2)n1 [Example 262, (S)-6-(4-(3-aminopiperidin-1-yl)-6-((2-(2-fluoro-6-methoxyphenyl)pyrimidin-4-yl)amino)pyridin-3-yl)-8-methyl-3,4-dihydroquinolin-2(1H)-one hydrochloride]"
11,≥ 8.00,"COc1cccc(F)c1-c1nccc(Nc2cc(N3CCC[C@H](N)C3)c(-c3ccc4c(c3)CCC(=O)N4C)cn2)n1 [Example 263, (S)-6-(4-(3-aminopiperidin-1-yl)-6-((2-(2-fluoro-6-methoxyphenyl)pyrimidin-4-yl)amino)pyridin-3-yl)-1-methyl-3,4-dihydroquinolin-2(1H)-one hydrochloride]"
12,≥ 8.00,"COc1cccc(F)c1-c1nccc(Nc2cc(N3CCC[C@H](N)C3)c(-c3ccc(C(=O)N4CCNCC4)cc3)cn2)n1 [Example 265, (S)-(4-(4-(3-aminopiperidin-1-yl)-6-((2-(2-fluoro-6-methoxyphenyl)pyrimidin-4-yl)amino)pyridin-3-yl)phenyl)(piperazin-1-yl)methanone hydrochloride]"

# — patent publication US20260347338A1, “PYRIMIDINE/PYRIDINE DERIVATIVES OR SALTS THEREOF AND PHARMACEUTICAL COMPOSITIONS COMPRISING THE SAME” (YUHAN CORPORATION, priority 2023, published 2026)
